The results in this text go back to patent publication US6469052B2, “Compounds for the photodecontamination of pathogens in blood” (Cerus Corporation, priority 1993, dated 2002).

Data set [1] has as its system Salmonella typhimurium TA98. Description: Ames assay (dark mutagenicity), strain TA98. The source says:
The second property that is important in testing a compound for use in methods of the present invention is mutagenicity. The most widely used mutagen/carcinogen screening assay is the Ames test. This assay is described by D. M. Maron and B. N. Ames in Mutation Research 113: 173 ( 1983) and a specific screen is described in detail in Example 17, below. The Ames test utilizes several unique strains of Salmonella typhimurium that are histidine- dependent for growth and that lack the usual DNA repair enzymes. The frequency of normal mutations that render the bacteria independent of histidine (i.e., the frequency of spontaneous revertants) is low. The test allows one to evaluate the impact of a compound on this revertant frequency.
In this example the compounds of the present invention are tested for their dark mutagenicity using an Ames assay. The procedures used for the Salmonella mutagenicity test as described in detail by Maron and Ames were followed exactly. Maron, D. M. and B. N. Ames, Mutation Research 113: 173 ( 1983). A brief description for each procedure is given here. The tester strains TA97a, TA98, TA100, TA102, TA1537 and TA1538 were obtained from Dr. Ames. TA97a, TA98, TA1537 and TA1538 are frameshift tester strains. TA100 and TA102 are base-substitution tester strains. Upon receipt each strain was cultured under a variety of conditions to confirm the genotypes specific to the strains.
The first tests done with the strains were to determine the range of spontaneous reversion for each of the strains. With each mutagenicity experiment the spontaneous reversion of the tester strains to histidine independence was measured and expressed as the number of spontaneous revertants per plate. This served as the background controls.
For all experiments, the pre-incubation procedure was used. In this procedure one vial of each tester strain was thawed and 20 μL of this culture was added to 6 mL of Oxoid Nutrient Broth #2. This solution was allowed to shake for 10 hours at 37° C. In the pre-incubation procedure, 0.1 mL of this overnight culture was added to each of the required number of sterile test tubes. To half of the tubes 0.5 mL of a 10% S-9 solution containing Aroclor 1254 induced rat liver extract (Molecular Toxicology Inc., Annapolis, Md.), and MgCl2, KCl, glucose-6-phosphate, NADP, and sodium phosphate buffer (Sigma, St. Louis, Mo.) were added. To the other half of the tubes 0.5 mL of 0.2M sodium phospate buffer, pH 7.4, was used in place of the S-9 mixture (the -S9 samples). Finally 0.1 mL of the test solution containing either 0, 0.1, 0.5, 1, 5, 10, 50, 100, 250, or 500 μg/mL of the test compound was added. The 0.7 mL mixture was vortexed and then pre-incubated while shaking for 20 minutes at 37° C. After shaking, 2 mL of molten top agar supplemented with histidine and biotin were added to the 0.7 mL mixture and immediately poured onto a minimal glucose agar plate (volume of base agar was 20 mL). The top agar was allowed 30 minutes to solidify and then the plates were inverted and incubated for 44 hours at 37° C. After incubation the number of revertant colonies on each plate were counted. […] (“n” represents the number of replicates performed for each data point.)
Maron and Ames (1983) describe the conflicting views with regard to the statisical treatment of data generated from the test.
On the technique in general: The Ames test uses bacterial strains that need an amino acid and regain growth without it when mutated back.

Data set [2] has as its system GMP-140 (p-selectin) on platelets. Put plainly: Platelet function: GMP-140 expression (flow cytometry, CD62). The format is cell-based, human. The following applies: 100 μM compound, 5 Joules/cm^2, 5 days storage. The procedure: To measure the effects of the present compounds and methods of decontamination on platelet function using these four indicators, four samples were prepared for each compound tested, two control samples and two containing compound. Three units of human platelets were obtained from the Sacramento Blood Center, Sacramento, Calif. These were each transferred under sterile conditions to 50 ml centrifuge tubes, then aliquots of each unit were transferred into a second set of 50 ml sterile centrifuge tubes. To each centrifuge tube containing platelet concentrate (PC), an aliquot of compound stock was added to reach a final concentration of 100 μM of compound. […] The samples were pipetted gently up and down to mix. Then aliquots (either 3 ml or 8 ml) of each sample was transferred to two sterile Teflon™ Medi-bags™ (American Fluoroseal Co., Silver Springs, Md.) (presently owned by The West Company, Lionville, Pa.). Samples were treated in one of two different sized bags, having either 3 ml or 8 ml capacity. […] For each compound tested, two control samples without compound were prepared by again removing aliquots of platelet concentrate (17 ml if using an 8 ml bag, […] if using a 3 ml bag) from the same one of the first set of 50 ml centrifuge tubes from which the compound sample was drawn, and dividing into Medibags, as before. One of each pair of Medibags containing a compound, and one of each pair of control Medibags, were illuminated for 5 Joules/cm^2 on the device described in Example 1, above. Then all experimental and control Medibags were placed on a platelet shaker for storage for 5 days. The same experiments were repeated several times to obtain more statistically meaningful data, as represented by “n”, the number of data points represented, in the graphs of FIGS. 21-24, discussed below.

The test system of data set [3] is Chinese hamster ovary (CHO) cells. Description: In vitro genotoxicity screen in CHO cells. The format is cell-based. The note with it: approximately 3 hours exposure in the dark, dilutions 1-1000 μg/ml. The source says: The positive control was methylmethane sulfonate.
Coverslips were mounted with Permount.

Regarding `Cc1oc2c(C)c3oc(=O)cc(C)c3cc2c1COCCN` [Compound 2, 4′-(4-amino-2-oxa)butyl-4,5′,8-trimethylpsoralen], the revertants per plate in data set [1] (TA98 +S9, 10 μg/plate) is listed as 24; in data set [1] (TA98 +S9, 50 μg/plate), 35; in data set [1] (TA98 +S9, 100 μg/plate), 53; in data set [1] (TA98 +S9, 250 μg/plate) it was 69; in data set [1] (TA98 +S9, 500 μg/plate), 63; in data set [1] (TA98 −S9, 10 μg/plate), 28. In addition, the revertants per plate came to 52 in data set [1] (TA98 −S9, 50 μg/plate); 39 in data set [1] (TA98 −S9, 100 μg/plate); 29 in data set [1] (TA98 −S9, 250 μg/plate); 6 in data set [1] (TA98 −S9, 500 μg/plate). Besides, the “GMP-140 expression: sample treated with light and psoralen (PCD) versus day 5 untreated control (D5)” value in data set [2] was “little or no difference”. The “genotoxic (toxic) concentration” value in data set [3] turned out to be 100 µg/mL.
For `Cc1oc2c(C)c3oc(=O)cc(C)c3cc2c1CNCCCCN` [Compound 6, 4′-(6-amino-2-aza)hexyl-4,5′,8-trimethylpsoralen], the revertants per plate came out at 12 in data set [1] (TA98 −S9, 10 μg/plate); 12 in data set [1] (TA98 −S9, 50 μg/plate); 22 in data set [1] (TA98 −S9, 100 μg/plate); 12 in data set [1] (TA98 −S9, 250 μg/plate); 9 in data set [1] (TA98 −S9, 500 μg/plate). For the same compound, in data set [2], the “GMP-140 expression: sample treated with light and psoralen (PCD) versus day 5 untreated control (D5)” value is given as “little or no difference”. Moreover, in data set [3], the “genotoxic (toxic) concentration” value was 100 µg/mL.
